In patent US12569497B2, “Use of HCN inhibitors for treatment of cancer” (The University of Hong Kong, priority 2017, dated 2026):
Where a name gives a salt, the structure may show the parent alone.

Experiments:
[1] = cited from earlier work
[2] = tested on: MDA-MB-231 breast cancer cells; experiment: apoptosis by flow cytometry (APO-BrdU TUNEL), MDA-MB-231; format: cell-based; settings: 200 μM, 72 hours
Experimental: (§1) Cells were seeded in 10 cm dish. When the confluence of cells reached 80%, the cells were treated with 200 μM of Ivabradine or double distilled water for 72 hours. The cells were washed with 10 mL of 1×PBS. The cells were detached from the dish by treating the cells with 1 mL of Trypsin (Gibco). The cell suspension was transferred to 15 mL centrifuge tube and subjected to centrifugation at 300×g for 5 minutes at room temperature. The cell pellet was kept. The cell pellet was washed with 5 mL of 1×PBS. The cell suspension was centrifuged at 300×g for 5 minutes at room temperature. The cell pellet was resuspended in 5 mL of 4% paraformaldehyde in PBS and place on ice for 15 minutes. The cell suspension was centrifuged at 300×g for 5 minutes. The cell pellet was washed with 5 mL of 1×PBS. After the washing, the cell suspension was centrifuged at 300×g for 5 minutes at room temperature. The cell pellet was resuspended in 0.5 mL of 1×PBS. The cell suspension was added to 5 mL of ice-cold 70% ethanol for 30 minutes. APO-BrdU TUNEL Assay Kit (ThermoFisher, Cat: A23210) was used. For each cell pellet, DNA labelling solution was prepared by mixing 10 μL of reaction buffer, 0.75 μL of TdT enzyme, 8 μL of BrdUTP and 31.25 μL of double distilled water. The cell pellet was resuspended in 50 μL of the DNA-labeling solution. […] The cells were analysed by BD LSR Fortessa Analyzer.

[3] = tested on: colon cancer cell line SW1116; experiment: MTT proliferation assay, SW1116; format: cell-based; settings: 200 μM, 3 days, vs double distilled water
Experimental: (§2) Ivabradine was purchased (Sigma). The powder was dissolved into double-distilled water.
(§3) MCF10A, MCF7, ZR75-1, BT474, MDA-MB-231, MDA-MB-453, Ishikawa, SW1116, PLC/PRF/5, MHCC-97L and Huh7 cells were seeded in 96-well plate with cell density 5000 cells per well. 200 μM of Ivabradine was used for cell treatment while double distilled water was used as control. 3-(4,5-dimethyl-2-thiazolyl)-2,5-diphenyl-2H-tetrazolium bromide (MTT) assay was performed 24, 48, 72 and 96 hours after Ivabradine treatment. MTT solution was prepared at 5 mg/mL in PBS and was filtered through a 0.2 μm filter. Then, 50 μl of MTT plus 200 μl of culture medium were added into each well. Cells were incubated for 4 hours at 37° C. with 5% CO2, 95% air and complete humidity. After 4 hours, the medium with MTT solution was removed and replaced with 200 μl of isopropanol with 4 mmol/L HCl and 0.1% NP-40. The 96-well plate was further incubated for 5 min at room temperature. The optical density of the wells was determined using a plate reader at a test wavelength of 570 nm and a reference wavelength of 630 nm.

[4] = tested on: liver cancer cell line Huh7; experiment: MTT proliferation assay, Huh7; format: cell-based; settings: 200 μM, 5 days, vs double distilled water
Experimental: as §2
as §3, with “3-(4,5-dimethyl-2-thiazolyl)-2,5-diphenyl-2H-tetrazolium bromide (MTT) assay was performed 24, 48, 72 and 96 hours after Ivabradine treatment.” left out

[5] = tested on: liver cancer cells MHCC-97L; experiment: clonogenic assay, MHCC-97L; format: cell-based; settings: 200 μM, 2 weeks
Experimental: (§4) For the clonogenic assay, 2000 cells were seeded in 6-well plate. 200 μM of Ivabradine was used to treat the cells while double distilled water was used as negative control. The cells were treated for 14 days. The cells were washed with 1 mL of 1×PBS and then fixed by incubating with 4% paraformaldehyde in PBS for 15 minutes at room temperature. The cells were washed with 1 mL of 1×PBS. The cell colonies were visualized by staining with 0.5% crystal violet (Sigma) solution for 1 hour at room temperature. The cells were washed with tap water. The number of cells equal or greater than 50 cells would be regarded as one colony. Number of colonies was counted. After the counting, stain was extracted by incubating with 500 μL of 10% acetic acid solution. The optical density at 650 nm was measured.

[6] = tested on: MDA-MB-231 breast cancer cells; experiment: cell cycle flow cytometry (propidium iodide), MDA-MB-231; format: cell-based; settings: 200 μM, 72 hours
MDA-MB-453 xenografts = experiment: tumor xenograft growth in nude mice, MDA-MB-453; format: in vivo, female nude mice; settings: MDA-MB-453 xenograft, 15 mg kg^−1 day^−1 IP, 18 days
Experimental: (§5) The effects of Ivabradine suppression on triple negative breast cancer was investigated in a female nude mouse model with MDA-MB-231 and MDA-MB-453 cells. The cell lines mixed with Matrigel (BD Biosciences) at the ratio of 1:1 were inoculated into the abdominal mammary fat pad of the 5 to 6 week old female nude mice. When the tumors were palpable, the mice were randomized into two groups, each consisting of eight animals. Each group was treated with Ivabradine (15 mg/kg day-1) or water. All reagents were administered via intraperitoneal delivery. Tumor sizes were measured by caliper and tumor volume was calculated as (length*width*width)/2. This protocol has been reviewed and approved by Committee on the Use of Live Animals in Teaching and Research (CULATR), the University of Hong Kong.
(§6) Tumor growth was compared between treatment and control groups (P<0.001). After 15 days (MDA-MB-231) or 18 days (MDA-MB-453) of the treatment, tumors were isolated and recorded by photo.

[7] = tested on: liver cancer cell line MHCC-97L; experiment: MTT proliferation assay, MHCC-97L; format: cell-based; settings: 200 μM, 5 days, vs double distilled water
Experimental: as §2
as §3, with “3-(4,5-dimethyl-2-thiazolyl)-2,5-diphenyl-2H-tetrazolium bromide (MTT) assay was performed 24, 48, 72 and 96 hours after Ivabradine treatment.” left out

[8] = tested on: liver cancer cells PLC/PRF/5; experiment: clonogenic assay, PLC/PRF/5; format: cell-based; settings: 200 μM, 2 weeks
Experimental: as §4

[9] = tested on: MDA-MB-453 breast cancer cells; experiment: apoptosis by flow cytometry (APO-BrdU TUNEL), MDA-MB-453; format: cell-based; settings: 200 μM, 72 hours
Experimental: as §1

[10] = tested on: MDA-MB-453 breast cancer cells; experiment: cell cycle flow cytometry (propidium iodide), MDA-MB-453; format: cell-based; settings: 200 μM, 72 hours
Experimental: as §1, with “Analyzer. […]” for “Analyzer.”

[11] = tested on: breast cancer cell line MCF7; experiment: MTT proliferation assay, MCF7; format: cell-based; settings: 200 μM, 5 days, vs double distilled water
Experimental: as §2
as §3, with “3-(4,5-dimethyl-2-thiazolyl)-2,5-diphenyl-2H-tetrazolium bromide (MTT) assay was performed 24, 48, 72 and 96 hours after Ivabradine treatment.” left out

[12] = tested on: TNBC cell line MDA-MB-453; experiment: MTT proliferation assay, MDA-MB-453; format: cell-based; settings: 200 μM, 5 days, vs double distilled water
Experimental: as §2
as §3, with “3-(4,5-dimethyl-2-thiazolyl)-2,5-diphenyl-2H-tetrazolium bromide (MTT) assay was performed 24, 48, 72 and 96 hours after Ivabradine treatment.” left out

(Ishikawa) = experiment: clonogenic assay, Ishikawa; format: cell-based; settings: 200 μM, 2 weeks
Experimental: as §4

[13] = tested on: breast cancer cells (MCF7, MDA-MB-231, MDA-MB-453, and BT-474); experiment: clonogenic assay, breast cancer cells; format: cell-based; settings: 200 μM, 2 weeks
Experimental: as §4

[14] = tested on: colon cancer cells (SW1116); experiment: clonogenic assay, SW1116; format: cell-based; settings: 200 μM, 2 weeks
Experimental: as §4

[15] = tested on: BT-474 breast cancer cells; experiment: cell cycle flow cytometry (propidium iodide), BT-474; format: cell-based; settings: 200 μM, 24 hours
[16] = tested on: liver cancer cell line PLC/PRF/5; experiment: MTT proliferation assay, PLC/PRF/5; format: cell-based; settings: 200 μM, 5 days, vs double distilled water
Experimental: as §2
as §3, with “3-(4,5-dimethyl-2-thiazolyl)-2,5-diphenyl-2H-tetrazolium bromide (MTT) assay was performed 24, 48, 72 and 96 hours after Ivabradine treatment.” left out

[17] = tested on: TNBC cell line MDA-MB-231; experiment: MTT proliferation assay, MDA-MB-231; format: cell-based; settings: 200 μM, 5 days, vs double distilled water
Experimental: as §2
as §3, with “3-(4,5-dimethyl-2-thiazolyl)-2,5-diphenyl-2H-tetrazolium bromide (MTT) assay was performed 24, 48, 72 and 96 hours after Ivabradine treatment.” left out

MDA-MB-231 xenografts = experiment: tumor xenograft growth in nude mice, MDA-MB-231; format: in vivo, female nude mice; settings: MDA-MB-231 xenograft, 15 mg kg^−1 day^−1 IP, 15 days
Experimental: as §5, §6

[18] = tested on: cancer cell line Ishikawa; experiment: MTT proliferation assay, Ishikawa; format: cell-based; settings: 200 μM, 7 days, vs double distilled water
Experimental: as §2
as §3, with “3-(4,5-dimethyl-2-thiazolyl)-2,5-diphenyl-2H-tetrazolium bromide (MTT) assay was performed 24, 48, 72 and 96 hours after Ivabradine treatment.” left out

[19] = tested on: BT-474 breast cancer cells; experiment: apoptosis by flow cytometry (APO-BrdU TUNEL), BT-474; format: cell-based; settings: 200 μM, 24 hours
Experimental: as §1, with “When the confluence of cells reached 80%, the cells were treated with 200 μM of Ivabradine or double distilled water for 72 hours.” left out, “solution. The cell suspension was incubated at 37° C. for 1 hour.” for “solution.”

[20] = tested on: breast cancer cell line BT474; experiment: MTT proliferation assay, BT474; format: cell-based; settings: 200 μM, 5 days, vs double distilled water
Experimental: as §2
as §3, with “3-(4,5-dimethyl-2-thiazolyl)-2,5-diphenyl-2H-tetrazolium bromide (MTT) assay was performed 24, 48, 72 and 96 hours after Ivabradine treatment.” left out

In the case of COc1cc2c(cc1OC)CC(=O)N(CCCN(C)C[C@H]1Cc3cc(OC)c(OC)cc31)CC2 [Ivabradine hydrochloride salt], the solubility in water [1] is listed as “over 5 mg/ml”.
With COc1cc2c(cc1OC)CC(=O)N(CCCN(C)C[C@H]1Cc3cc(OC)c(OC)cc31)CC2 [Ivabradine, 1.7,8-dimethoxy-3-(3-(((4,5-dimethoxybenzocyclobutan-1-yl)methyl)methylamino)propyl)-1,3,4,5-tetrahydro-2H-benzazepin-2-one] the apoptosis [2] was “significantly induces apoptosis”, the “proliferation (MTT)” value [3] was “significantly reduced the proliferation” and the “proliferation (MTT)” value [4] was “significantly reduced the proliferation”. The “colony formation and proliferation (clonogenic assay)” value (“colony formation and proliferation” below) [5] was “suppression of liver cancer colony formation and proliferation”, the cell cycle arrest [6] was “induced sub-G1 cell cycle arrest” and the tumor growth (MDA-MB-453 xenografts) was “significantly suppress tumor growth”. For the same compound, the “proliferation (MTT)” value [7] was “significantly reduced the proliferation”, the “colony formation and proliferation” value [8] was “suppression of liver cancer colony formation and proliferation” and the apoptosis [9] was “significantly induces apoptosis”. The cell cycle arrest [10] was “induced sub-G1 cell cycle arrest”, the “proliferation (MTT)” value [11] was “significantly reduced the proliferation” and the “proliferation (MTT)” value [12] was “significantly reduced the proliferation”. The “colony formation and proliferation” value ((Ishikawa)) was “suppression of ovarian cancer colony formation and proliferation”, the “colony formation and proliferation” value [13] was “suppression of breast cancer colony formation and proliferation” and the “colony formation and proliferation” value [14] was “suppression of colon cancer colony formation and proliferation”. For the same compound, the cell cycle arrest [15] was “induced sub-G1 cell cycle arrest”, the solubility in water [1] was “about 0.02 mg/ml” and the “proliferation (MTT)” value [16] was “significantly reduced the proliferation”. For the same compound, the “proliferation (MTT)” value [17] was “significantly reduced the proliferation”, the tumor growth (MDA-MB-231 xenografts) was “significantly suppress tumor growth” and the “proliferation (MTT)” value [18] was “significantly reduced the proliferation”. For the same compound, the apoptosis [19] was “significantly induces apoptosis” and the “proliferation (MTT)” value [20] was “significantly reduced the proliferation”.
